Laboratory results published in patent US20260216170A1, “TETRAHYDROISOQUINOLINE HETEROBIFUNCTIONAL BCL-XL DEGRADERS” (Treeline Biosciences, Inc., priority 2023, published 2026).

Biological target: T1, Human BCL-XL protein (N-terminal HiBiT tagged BCL-XL expressed in HT1080 cells) (Homo sapiens, UniProt Q07817)
T1 construct: expressed in transfected cells; host or cells: HT-1080 (ATCC CCL-121), stably transduced with lentivirus pLV-UBC-N-HiBiT-BCL-XL-PGK-puro and selected with puromycin
Assay: HiBiT Based Degradation Assay
Assay type: cell-based
Conditions: 24 hours incubation; for DC50: BCL-XL degradation, HT1080 cells expressing N-HiBiT-BCL-XL, normalized with DMSO control, geometric mean for multiple data points, read-out: EC50 (24 h); for Ymin (24 h): bottom of BCL-XL degradation curve (remaining HiBiT-BCL-XL signal vs DMSO control), HT1080 cells
In short: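 BCL-XL degradation was read as Nano-Glo HiBiT lytic luminescence relative to DMSO after a 24 h compound treatment of HT1080 cells carrying stably integrated N-HiBiT-BCL-XL. EC50 values come from four-parameter logistic curves, with the hook-curve minimum fixed as bottom, and are geometric means where tested repeatedly.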

T1 sequence (Q07817 whole entry): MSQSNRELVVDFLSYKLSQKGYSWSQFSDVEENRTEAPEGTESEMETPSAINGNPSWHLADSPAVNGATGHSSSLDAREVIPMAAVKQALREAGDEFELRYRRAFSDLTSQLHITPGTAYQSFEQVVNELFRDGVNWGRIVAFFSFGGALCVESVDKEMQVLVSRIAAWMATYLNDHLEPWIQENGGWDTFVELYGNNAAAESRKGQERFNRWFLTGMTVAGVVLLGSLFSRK

SMILES | DC50 [nM] | Ymin (24 h)
Cc1cc(OC[C@@H]2C[C@@H]2C2CCN(CC(=O)Nc3ccc4c(C5CCC(=O)NC5=O)nn(C)c4c3)CC2)ccc1-c1ccc(N2CCc3cccc(C(=O)Nc4nc5ccccc5s4)c3C2)nc1C(=O)O (single isomer, unassigned) [Compound 1003d] | < 10 | A (Ymin < 30%)
Cc1c(OCCCC2CCN(CC(=O)Nc3ccc4c(C5CCC(=O)NC5=O)nn(C)c4c3)CC2)cccc1-c1ccc(N2CCc3ccnc(C(=O)Nc4nc5ccccc5s4)c3C2)nc1C(=O)O (stereo not drawn) [Compound 106, 6-(8-(benzo[d]thiazol-2-ylcarbamoyl)-3,4-dihydro-2,7-naphthyridin-2(1H)-yl)-3-(3-(3-(1-(2-((3-(2,6-dioxopiperidin-3-yl)-1-methyl-1H-indazol-6-yl)amino)-2-oxoethyl)piperidin-4-yl)propoxy)-2-methylphenyl)picolinic acid] | 10 to 100 | B (30% ≤ Ymin < 50%)
Cc1cc(OCCCC2CCN(CCNc3ccc4c(C5CCC(=O)NC5=O)nn(C)c4c3)CC2)ccc1-c1ccc(N2CCc3cccc(C(=O)Nc4nc5ccccc5s4)c3C2)nc1C(=O)O (stereo not drawn) [Compound 179, 6-(8-(benzo[d]thiazol-2-ylcarbamoyl)-3,4-dihydroisoquinolin-2(1H)-yl)-3-(4-(3-(1-(2-((3-(2,6-dioxopiperidin-3-yl)-1-methyl-1H-indazol-6-yl)amino)ethyl)piperidin-4-yl)propoxy)-2-methylphenyl)picolinic acid] | < 10 | A (Ymin < 30%)
Cn1nc(C2CCC(=O)NC2=O)c2ccc(NC(=O)CN3CCC4(CC3)CC(COc3cccc(-c5ccc(N6CCc7cccc(C(=O)Nc8nc9ccccc9s8)c7C6)nc5C(=O)O)c3C(F)(F)F)C4)c(F)c21 (stereo not drawn) [Compound 185] | 10 to 100 | B (30% ≤ Ymin < 50%)
Cn1nc(C2CCC(=O)NC2=O)c2ccc(NC(=O)CN3CCC(CCCOc4ccc(-c5ccc(N6CCc7cccc(C(=O)Nc8nc9ccccc9s8)c7C6)nc5C(=O)O)c(C(F)(F)F)c4)CC3)c(F)c21 (stereo not drawn) [Compound 183] | 10 to 100 | B (30% ≤ Ymin < 50%)
Cc1c(OC2CC3(CCN(CC(=O)Nc4ccc5c(C6CCC(=O)NC6=O)nn(C)c5c4)CC3)C2)cccc1-c1ccc(N2CCc3cccc(C(=O)Nc4nc5ccccc5s4)c3C2)nc1C(=O)O (stereo not drawn) [Compound 113, 6-[8-(1,3-benzothiazol-2-ylcarbamoyl)-3,4-dihydro-1H-isoquinolin-2-yl]-3-[3-[[7-[2-[[3-(2,6-dioxo-3-piperidyl)-1-methyl-indazol-6-yl]amino]-2-oxo-ethyl]-7-azaspiro[3.5]nonan-2-yl]oxy]-2-methyl-phenyl]pyridine-2-carboxylic acid] | < 10 | B (30% ≤ Ymin < 50%)
Cn1nc(C2CCC(=O)NC2=O)c2ccc(NC(=O)CN3CCC4(CC3)CC(Oc3ccc(-c5ccc(N6CCc7ccnc(C(=O)Nc8nc9ccccc9s8)c7C6)nc5C(=O)O)c(C(F)(F)F)c3)C4)cc21 (stereo not drawn) [Compound 168, 6-[8-(1,3-benzothiazol-2-ylcarbamoyl)-3,4-dihydro-1H-2,7-naphthyridin-2-yl]-3-[4-[[7-[2-[[3-(2,6-dioxo-3-piperidyl)-1-methyl-indazol-6-yl]amino]-2-oxo-ethyl]-7-azaspiro[3.5]nonan-2-yl]oxy]-2-(trifluoromethyl)phenyl]pyridine-2-carboxylic acid] | < 10 | B (30% ≤ Ymin < 50%)
COc1c(NC(=O)CN2CCC3(CC2)CC(COc2ccc(-c4ccc(N5CCc6cccc(C(=O)Nc7nc8ccccc8s7)c6C5)nc4C(=O)O)c(C(F)(F)F)c2)C3)ccc2c(C3CCC(=O)NC3=O)nn(C)c12 (stereo not drawn) [Compound 144, 6-(8-(benzo[d]thiazol-2-ylcarbamoyl)-3,4-dihydroisoquinolin-2(1H)-yl)-3-(4-((7-(2-((3-(2,6-dioxopiperidin-3-yl)-7-methoxy-1-methyl-1H-indazol-6-yl)amino)-2-oxoethyl)-7-azaspiro[3.5]nonan-2-yl)methoxy)-2-(trifluoromethyl)phenyl)picolinic acid] | 10 to 100 | B (30% ≤ Ymin < 50%)
Cc1cc(OCC2CC3(CCN(CC(=O)Nc4ccc5c(C6CCC(=O)NC6=O)nn(C)c5c4C(F)(F)F)CC3)C2)ccc1-c1ccc(N2CCc3cccc(C(=O)Nc4nc5ccccc5s4)c3C2)nc1C(=O)O (stereo not drawn) [Compound 136] | 10 to 100 | B (30% ≤ Ymin < 50%)
Cn1nc(C2CCC(=O)NC2=O)c2ccc(NC(=O)CN3CCC4(CC3)CC(Oc3ccc(-c5ccc(N6CCc7ccnc(C(=O)Nc8nc9ccccc9s8)c7C6)nc5C(=O)O)c(C(F)(F)F)c3)C4)c(F)c21 (stereo not drawn) [Compound 203] | 10 to 100 | B (30% ≤ Ymin < 50%)
C[C@@H](CCC1CCN(CC(=O)Nc2ccc3c(C4CCC(=O)NC4=O)nn(C)c3c2)CC1)Oc1ccc(-c2ccc(N3CCc4cccc(C(=O)Nc5nc6ccccc6s5)c4C3)nc2C(=O)O)c(C(F)(F)F)c1 (single isomer, unassigned) [Compound 138a] | < 10 | B (30% ≤ Ymin < 50%)

Other lines, results leading:

DC50 [nM] | Ymin (24 h) | SMILES
10 to 100 | A (Ymin < 30%) | COc1c(NC(=O)CN2CC[C@@H](CCCOc3ccc(-c4ccc(N5CCc6cccc(C(=O)Nc7nc8ccccc8s7)c6C5)nc4C(=O)O)c(C)c3)C[C@H]2C)ccc2c(C3CCC(=O)NC3=O)nn(C)c12 (stereo partly drawn) [Compound 210d]
10 to 100 | B (30% ≤ Ymin < 50%) | Cc1c(OCCC[C@@H]2CCN(CC(=O)Nc3ccc4c(C5CCC(=O)NC5=O)nn(C)c4c3)[C@@H](C)C2)cccc1-c1ccc(N2CCc3cccc(C(=O)Nc4nc5ccccc5s4)c3C2)nc1C(=O)O (stereo partly drawn) [Compound 208a]
10 to 100 | B (30% ≤ Ymin < 50%) | C[C@H]1C[C@H](CCCOc2ccc(-c3ccc(N4CCc5cccc(C(=O)Nc6nc7ccccc7s6)c5C4)nc3C(=O)O)c(C(F)(F)F)c2)CCN1CC(=O)Nc1ccc2c(C3CCC(=O)NC3=O)nn(C)c2c1 (stereo partly drawn) [Compound 209b]
10 to 100 | B (30% ≤ Ymin < 50%) | Cc1cc(O[C@@H](C)CCC2CCN(CC(=O)Nc3ccc4c(C5CCC(=O)NC5=O)nn(C)c4n3)CC2)ccc1-c1ccc(N2CCc3cccc(C(=O)Nc4nc5ccccc5s4)c3C2)nc1C(=O)O (single isomer, unassigned) [Compound 225a]
